Results reported in patent publication US20050182020A1, “Ceramide de novo synthesis-based therapeutic and prophylactic methods, and related articles of manufacture” (priority 2003, published 2005).

Experiments:
[1] = test system: HSN1 lymphoblasts (HSN 4561); assay: SRE-promoter reporter (adenovirus transfection) in HSN1 lymphoblasts; assay type: cell-based, human; details: 7 h
Description: (§1) FIG. 10. Increased SRE-mediated gene transcription in HSN1 cells (HSN 4561). Cells were transfected with an SRE-element containing promoter-reporter gene. This construct is identical to the promoter-reporter gene used in all previous studies. In order to achieve transfection in lymphoblasts, this promoter construct was subcloned into an adenovirus vector. Cells (control lymphoblasts and HSN1 lymphoblasts) were transfected for 3 h with this adenovirus vector and left in growth medium overnight. Medium was then switched to experimental medium containing 1% fatty acid free BSA (control conditions) or cholesterol/25-OH cholesterol (10 ug/ml/1 ug/ml) or oleic acid. After 7 h the luciferase activity which reflects binding of SREBP to the SRE-promoter element was measured. Because adenovirus mediated transfections are transient transfections the necessity for a transfection control arises. The adenovirus vector contains a β-gal control gene that is not regulated by experimental conditions and serves as a transfection control (standard practice).

[2] = test system: control lymphoblasts (HSN 4513); assay: SRE-promoter reporter (adenovirus transfection) in control lymphoblasts; assay type: cell-based, human; details: oleic acid, 7 h
Description: as §1

[3] = test system: HSN1 cells (4561); assay: Cholesterol / cholesterylester synthesis from 3H-mevalonate in HSN1 cells; assay type: cell-based, human
Description: (§2) FIG. 12. Increased free cholesterol synthesis in HSN cells. In order to investigate whether increased SRE-mediated gene transcription also results in increased cholesterol synthesis cells were incubated with radioactive mevalonate, a precursor which represents a committed step in cholesterol synthesis (see FIG. 11). Control and HSN1 cells were incubated for 7 h and 18 h in the presence of trace amounts of ^3H-mevalonate. Lipids were extracted and separated by thin […] chromatography (TLC). Radioactive counts in the cholesterol fraction were analyzed by liquid scintillation counting.
FIG. 14. Oleic acid increases HSN 4561 synthesis of high levels of free cholesterol but not cholesteryl ester. Cells were incubated for 4 h with ^3H-mevalonate and grown in the presence or absence of 0.3 mM oleic acid.
(§3) FIG. 16. Incubation with mevastatin decreases free cholesterol synthesis in HSN cells as well as in controls. Cells were treated for 16 h in the presence of ^3H-mevalonate to assess cholesterol de novo synthesis and several inhibitors of either cholesterol or ceramide synthesis (Mevastatin=Statin), C6 ceramide (previously shown by us to decreased SREBP levels and SRE-mediated gene transcription), cycloserine (inhibitor of serine-palmiltoyl transferase), cholesterol (classical inhibitor of de novo synthesis by negative feedback).

[4] = test system: NPA fibroblasts; assay: SRE-promoter reporter (adenoviral transfection) in NPA fibroblasts; assay type: cell-based; details: addition of cholesterol; reversible on switch to BSA
Description: FIG. 20. SRE-mediated gene transcription is increased in NPA fibroblasts. The hypothesis was evaluated that increased ceramide de novo synthesis affects SREBP and SRE-mediated gene transcription in Niemann Pick Type A cells. Cells were transfected with an SRE-promoter construct (using adenoviral transfection as above in HSN cells). […] Addition of cholesterol decreases SRE-mediated gene transcription and this process is also reversible.

[5] = test system: Niemann Pick Disease Type A fibroblasts; assay: Ceramide de novo synthesis (3H-serine) in NPA fibroblasts; assay type: cell-based; details: overnight incubation with agent, vs 1% BSA
Description: FIG. 19. Ceramide synthesis is increased in NPA fibroblasts. Fibroblasts from different control individuals and from two different cell lines derived from Niemann Pick Disease Type A were incubated for 4 h in the presence of ^3H-serine to measure de novo ceramide synthesis after having been incubated overnight in either control medium (1% BSA) or in the presence of cholesterol or C8-Ceramide. Lipid extraction and separation were carried out.

[6] = test system: SRE-mediated gene transcription; assay: SRE-promoter luciferase reporter gene assay in LY-B cells (CHO cells mutated in LCB1 subunit of serine-palmitoyl transferase); assay type: cell-based, Chinese hamster; details: cholesterol 10 μg/ml and 25-OH cholesterol 1 μg/ml, 16 h
Description: (§4) FIG. 5. LY-B cells fail to recover SRE-mediated gene transcription in cholesterol depletion but recover SRE-mediated gene transcription in the presence of DMS. […] Both cell lines have been transfected to stably express an SRE-promoter construct linked to the luciferase reporter gene. On day 2, cells were incubated for 16 h with 1% BSA (control) or in the presence of cholesterol (10 μg/ml) and 25-OH cholesterol (1 μg/ml) to decrease SRE-mediated gene transcription. Then, incubation medium was switched to 1% BSA or DMS (5 μM) for 6 h. After cell lysis, luciferase activity was analyzed, expressed as a ratio of protein content. Data represent the average (±S.D.) of at least 4 different experiments, each performed in triplicate.
Enzyme assays: Cells to be analyzed for luciferase activity were lyzed in lysis buffer A containing 0.1% Triton X-100, 50 mM Hepes, 10 mM MgSO4, pH 7.7. Cells were scraped, collected, vortexed and briefly centrifuged to pellet cell debris. An aliquot was used to measure luciferase activities in a luminometer (Berthold LB 9501, Wallac Inc., Gaithersburg, Md.) with a luciferin reagent from Promega (Madison, Wis.). Luciferase activity in relative light units (RLU) was divided by protein content (mg/ml) for each extract. […]

[7] = test system: SRE-mediated gene transcription; assay: SRE-promoter luciferase reporter gene assay in stably transfected CHO cells; assay type: cell-based, Chinese hamster; details: for SRE-mediated gene transcription (luciferase RLU/protein): myriocin 1 μM, cycloserine 500 mM, fumonisin B1 10 μM, PPMP 20 μM, NB-DNJ 40 μM, cholesterol/25-OH cholesterol 10/1 μg/ml, vs 1% BSA
Description: FIG. 3. Inhibition of ceramide synthesis and SRE-mediated gene transcription. (A) Decreased ceramide synthesis correlates with decreased levels of SRE-mediated gene transcription and mSREBP. […] After cell lysis, luciferase activity was analyzed, and expressed as a ratio of protein content. Data represent the average (±S.D.) of at least 4 different experiments, each performed in triplicate. […] CHO cells stably transfected with an SRE-promoter construct linked to the luciferase reporter gene were incubated for 8 h in the presence of control conditions (1% BSA) or increasing levels of myriocin (0.25-1 μM). After cell lysis, luciferase activity was analyzed, expressed as a ratio of protein content. Data represent the average (±S.D.) of at least 3 different experiments, each performed in triplicate.
FIG. 4. Increased ceramide synthesis and SRE-mediated gene transcription. (A) Increased ceramide de novo synthesis correlates with increased SRE-mediated gene transcription. On day 1, CHO cells stably transfected with an SRE-promoter construct linked to the luciferase reporter gene were plated at 80% confluency. […] Cells were harvested, lysed and analyzed for luciferase activity (measured in relative light units, RLU) and protein content. Data are expressed as percentage of control and represent the average (±S.D.) of three different experiments, each performed in triplicate. Inset: Western blot analysis: On day 1, CHO cells were plated in regular growth medium. On day 2, cells were incubated for 8 h with control medium (1% BSA) or DMS (5 μM). Whole cell extracts (30 μg protein) were loaded on a 4-14% continuous gradient SDS-PAGE gel. P and M denote the precursor (125 kd) and mature (68 kd) form of SREBP-1 in a representative experiment. (B) DMS increases ceramide de novo synthesis. CHO cells were treated for 3.5 h either with control conditions (1% BSA) or DMS (2.5-5 μM). […] Data are expressed as dpm/protein and represent a typical experiment.
as §4
Cell culture and stable transfections: Cells were grown in F12-nutrient mixture medium containing 10% fetal bovine serum (FBS), 1% glutamine (v/v), 1% penicillin/streptomycin (v/v), and 10% fetal bovine serum (v/v) at 37° C. in humidified CO2 (5%). To obtain stable transfectants, cells were plated in 12-well plates at 50% confluency and transfected for 5 h in the presence of serum-free Dulbecco's modified Eagle's medium (DMEM) with pSyn SRE (1 μg/well) and pWLNeo (0.25 μg/well) using Lipofectamin (1.5 μl/well). Cells were then incubated for 2 days in growth medium. On day three, neomycin-containing medium (400 μg/ml) was added. Selection for neomycin resistant colonies was continued for three weeks. Pooled clones were analyzed for luciferase expression. Experiments were performed with pooled clones as well as with cells derived from a single clone. Cells were grown in the presence of 400 μg/ml neomycin. For experimental use, cells were plated in the absence of neomycin at least 24 h ahead in regular growth medium.
Enzyme assays: Cells to be analyzed for luciferase activity were lyzed in lysis buffer A containing 0.1% Triton X-100, 50 mM Hepes, 10 mM MgSO4, pH 7.7. Cells were scraped, collected, vortexed and briefly centrifuged to pellet cell debris. […]

[8] = several animal studies; cited from earlier work
[9] = rats fed toxic levels, 20 week study (ref. 8); cited from earlier work
[10] = test system: control cells (4513); assay: Cholesterol synthesis from 3H-mevalonate in control lymphoblasts; assay type: cell-based, human; details: 16 h
Description: as §2, §3

[11] = test system: HMG-CoA synthase mRNA; assay: Northern blot of HMG-CoA synthase mRNA in CHO cells; assay type: cell-based, Chinese hamster; details: myriocin 1 μM, 16 h
[12] = test system: cellular sphingomyelin levels; assay: Cellular sphingomyelin levels (TLC, phosphorus); assay type: cell-based; details: within 24 h; data not shown
Text: An aliquot was used for luciferase and protein determination. […] Lipids were then dried under N2. […] Absolute cpm values range between 400 and 800 cpm. […] In brief, lipids were extracted as above. Lipid extracts were run on TLC.
What is the role of cellular sphingomyelin levels on SRE-mediated gene transcription? […] LY-B cells have decreased sphingomyelin levels. Yet, SRE-mediated gene transcription is decreased in LY-B cells as well as in myriocin treated cells.

[13] = test system: SREBP; assay: Fluorescently labeled SREBP in cell culture after addition of DAG; assay type: cell-based; details: preliminary data in cell culture
Description: Data: Propanolol ([…]) inhibits SRE-mediated gene transcription to 40% (+3%) within 30 min. Resvaratrol ([…]) inhibits SRE-mediated gene transcription to 7% (±16%) within 4 h.
Preliminary data: Inhibition of PAP by propanolol or inhibition of PKD by resvaratrol both decrease SRE-mediated gene transcription. Addition of a DAG analogue that is exogenously added and thus distributes to membranes other than the Golgi results in reorientation of fluorescently labeled mature SREBP.

Q: Which “SRE-mediated gene transcription (luciferase/β-gal) in HSN 1 (4561)” value ([1]; oleic acid) does the source give for `CCCCCCCC/C=C\CCCCCCCC(=O)O` [Oleic acid] here?
A: The value was “does not decrease”.

Q: And the “SRE-mediated gene transcription (luciferase/β-gal) in controls” value [2]?
A: The value was “does not decrease”.

Q: What about the “synthesis of cholesterol from 3H-mevalonate” value ([3]; HSN 4561, 0.3 mM oleic acid, 4 h) of the same molecule?
A: The value was “stimulates”.

Q: For `CC(C)CCC[C@@H](C)[C@H]1CC[C@H]2[C@@H]3CC=C4C[C@@H](O)CC[C@]4(C)[C@H]3CC[C@]12C` [cholesterol], which SRE-mediated gene transcription [4] is on record?
A: The SRE-mediated gene transcription was “decreases”.

Q: And the “SRE-mediated gene transcription (luciferase/β-gal) in HSN 1 (4561)” value ([1]; cholesterol/25-OH cholesterol 10/1 ug/ml)?
A: Its value is “very efficient in decreasing”.

Q: What about the “ceramide de novo synthesis (3H-serine, 4 h)” value [5] of the same molecule?
A: Its value is “does not significantly decrease”.

Q: And the “decrease of SRE-mediated gene transcription in LY-B cells compared to control cells” value [6]?
A: Its value is “significantly stronger”.

Q: And the “sensitivity of cholesterol de novo synthesis in HSN1 cells (4561) relative to control cells” value ([3]; 16 h, 3H-mevalonate)?
A: The value was “more sensitive”.

Q: What does the source list for `CCCC[C@@H](C)[C@@H](OC(=O)C[C@@H](CC(=O)O)C(=O)O)[C@H](C[C@@H](C)C[C@H](O)CCCC[C@@H](O)C[C@H](O)[C@H](C)N)OC(=O)C[C@@H](CC(=O)O)C(=O)O` [fumonisin B1]?
A: SRE-mediated gene transcription (luciferase RLU/protein) ([7]; 8 h): significantly reduced; hepatotoxicity [8]: hepatotoxicity; plasma cholesterol levels [9]: significantly decreased

Q: Which “free cholesterol synthesis in controls” value [10] does the source give for `CC[C@H](C)C(=O)O[C@H]1CCC=C2C=C[C@H](C)[C@H](CC[C@@H]3C[C@@H](O)CC(=O)O3)[C@H]21` [mevastatin] here?
A: Its value is “decreases”.

Q: And the “free cholesterol synthesis in HSN cells” value ([3]; 16 h, 3H-mevalonate)?
A: The value was “decreases”.

Q: What does the source list for `CCCCCCC(=O)CCCCCC/C=C/C[C@@H](O)[C@H](O)[C@@](N)(CO)C(=O)O` [myriocin]?
A: SRE-mediated gene transcription (luciferase RLU/protein) ([7]; 8 h): significantly reduced; expression of another control β-gal reporter gene ([7]; data not shown): did not decrease; SRE-mediated gene transcription, dose dependence ([7]; myriocin 0.25-1 μM, 8 h): dose-dependently decreases; HMG-CoA synthase mRNA levels relative to control [11]: half; cellular sphingomyelin levels [12]: does not change

Q: With diacylglycerol [DAG] as the molecule, how does the “effect on fluorescently labeled SREBP” value [13] read?
A: The value was “attracts fluorescently labeled SREBP”.
